According to patent publication US9938269B2, “Inhibitor compounds of phosphodiesterase type 10A” (ABBVIE INC., priority 2011, dated 2018):
Counter-ions that a name gives are not always drawn.

Legend:
[1] = Determination of the microsomal half-life, human liver microsomes; conditions: human, liver microsomes, pH 7.4
[2] = Determination of the microsomal half-life, rat liver microsomes; conditions: rat, liver microsomes, pH 7.4
PDE10A (human) = molecular target: T1, PDE10A (human) (Homo sapiens, UniProt Q9Y233); experiment: Measurement of PDE activity (HTRF cAMP kit), human PDE10A; format: biochemical; conditions: PDE enzymatic reaction, substrate 20 nM for PDE10, 60 minutes at 29 C
T1 construct: purchased BPS Bioscience
Procedure, shortened: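 Recombinant human PDE10A (10–250 pM range across PDEs) with 20 nM cAMP substrate in 20 mM Tris-HCl pH 7.5, 10 mM MgCl2, 0.1% BSA, compound pre-mixed with enzyme. Ran 60 min at 29 °C. Remaining cAMP read by HTRF, converted to % of uninhibited activity, and IC50 fitted.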

T1 sequence (Q9Y233 whole entry): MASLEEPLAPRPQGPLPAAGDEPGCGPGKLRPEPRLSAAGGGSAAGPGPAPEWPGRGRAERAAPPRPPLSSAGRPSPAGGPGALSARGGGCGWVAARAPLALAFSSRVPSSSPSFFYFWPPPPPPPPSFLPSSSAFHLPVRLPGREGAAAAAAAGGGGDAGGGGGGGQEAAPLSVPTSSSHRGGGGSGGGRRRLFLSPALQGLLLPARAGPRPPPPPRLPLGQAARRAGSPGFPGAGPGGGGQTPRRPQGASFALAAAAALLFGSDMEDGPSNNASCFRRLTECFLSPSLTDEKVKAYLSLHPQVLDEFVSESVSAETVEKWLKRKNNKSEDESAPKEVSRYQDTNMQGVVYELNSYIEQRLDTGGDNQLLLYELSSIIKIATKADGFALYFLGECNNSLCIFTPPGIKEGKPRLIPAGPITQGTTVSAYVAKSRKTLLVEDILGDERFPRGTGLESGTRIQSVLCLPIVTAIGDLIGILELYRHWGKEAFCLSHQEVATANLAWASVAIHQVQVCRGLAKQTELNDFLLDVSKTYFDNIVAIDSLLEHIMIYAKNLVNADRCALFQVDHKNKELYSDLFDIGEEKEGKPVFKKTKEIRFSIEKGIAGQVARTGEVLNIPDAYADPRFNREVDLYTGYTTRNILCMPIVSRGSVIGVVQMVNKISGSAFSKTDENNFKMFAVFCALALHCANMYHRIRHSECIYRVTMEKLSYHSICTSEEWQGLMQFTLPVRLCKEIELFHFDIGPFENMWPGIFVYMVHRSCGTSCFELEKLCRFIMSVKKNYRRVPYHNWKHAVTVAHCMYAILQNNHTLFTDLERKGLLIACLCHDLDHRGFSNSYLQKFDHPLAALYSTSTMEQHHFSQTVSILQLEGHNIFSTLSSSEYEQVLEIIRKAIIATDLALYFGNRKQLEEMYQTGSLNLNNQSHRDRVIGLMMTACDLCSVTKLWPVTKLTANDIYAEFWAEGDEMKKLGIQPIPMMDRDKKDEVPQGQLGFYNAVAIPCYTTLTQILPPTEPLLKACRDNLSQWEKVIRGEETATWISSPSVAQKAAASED

Compound	microsomal CLint at 0.5 μM [1]	microsomal CLint at 0.5 μM [2]	IC50 (PDE10A (human))
O=C1c2nccc(-c3cccnc3)c2CN1CCc1ccc2ccccc2n1 [compound 463, 4-Pyridin-3-yl-6-(2-quinolin-2-yl-ethyl)-5,6-dihydro-pyrrolo[3,4-b]pyridin-7-one trifluoroacetate]	< 100 µL/min/mg	< 100 µL/min/mg	100 to 200 nM
COc1ccc(-c2ccnn2C)c2c1C(=O)N(CCc1cn3ccccc3n1)C2 [compound 464, 2-(2-Imidazo[1,2-a]pyridin-2-yl-ethyl)-7-methoxy-4-(2-methyl-2H-pyrazol-3-yl)-2,3-dihydro-isoindol-1-one trifluoroacetate]	< 100 µL/min/mg	< 100 µL/min/mg	< 100 nM
O=C1c2c(-c3ccncc3)ccnc2CN1CCc1cnc2ccccc2n1 [compound 465, 4-(4-Pyridyl)-6-(2-quinoxalin-2-ylethyl)-7H-pyrrolo[3,4-b]pyridin-5-one]	< 100 µL/min/mg	< 100 µL/min/mg	< 100 nM
Cc1cccc(CCN2Cc3nccc(N4CCOCC4)c3C2=O)n1 [compound 466, 6-[2-(6-Methyl-2-pyridyl)ethyl]-4-morpholino-7H-pyrrolo[3,4-b]pyridin-5-one]	< 100 µL/min/mg	> 220 µL/min/mg	100 to 200 nM
O=C1c2nccc(-c3cncnc3)c2CN1CCc1ccc2ccccc2n1 [compound 467, 4-Pyrimidin-5-yl-6-[2-(2-quinolyl)ethyl]-5H-pyrrolo[3,4-b]pyridin-7-one]	< 100 µL/min/mg	< 100 µL/min/mg	100 to 200 nM
O=C1c2c(-c3ccncc3)ccnc2CN1CCc1ccc2sccc2n1 [compound 472, 4-(4-Pyridyl)-6-(2-thieno[3,2-b]pyridin-5-ylethyl)-7H-pyrrolo[3,4-b]pyridin-5-one]	100 to 220 µL/min/mg	100 to 220 µL/min/mg	< 100 nM
Cc1cnc(CCN2Cc3nccc(-c4ccncc4)c3C2=O)c(C)c1 [compound 473, 6-[2-(3,5-Dimethyl-2-pyridyl)ethyl]-4-(4-pyridyl)-7H-pyrrolo[3,4-b]pyridin-5-one]	100 to 220 µL/min/mg	100 to 220 µL/min/mg	100 to 200 nM
Cc1ccc(CCN2Cc3nccc(-c4ccncc4)c3C2=O)nc1C [compound 474, 6-[2-(5,6-Dimethyl-2-pyridyl)ethyl]-4-(4-pyridyl)-7H-pyrrolo[3,4-b]pyridin-5-one trifluoroacetate]	100 to 220 µL/min/mg	100 to 220 µL/min/mg	100 to 200 nM
Cc1ccc(CCN2Cc3nccc(N4CCS(=O)(=O)CC4)c3C2=O)nc1 [compound 479, 4-(1,1-Dioxo-1,4-thiazinan-4-yl)-6-[2-(5-methyl-2-pyridyl)ethyl]-7H-pyrrolo[3,4-b]pyridin-5-one trifluoroacetate]	< 100 µL/min/mg	< 100 µL/min/mg	200 to 500 nM
Cc1ccc(CCN2Cc3nccc(-c4ccncc4)c3C2=O)nc1 [compound 481, 6-[2-(5-Methyl-2-pyridyl)ethyl]-4-(4-pyridyl)-7H-pyrrolo[3,4-b]pyridin-5-one trifluoroacetate]	< 100 µL/min/mg	< 100 µL/min/mg	200 to 500 nM
O=C1c2c(cccc2N2CCOCC2)CN1CCc1cnc2ccccc2n1 [compound 482, 7-Morpholino-2-(2-quinoxalin-2-ylethyl)isoindolin-1-one]	< 100 µL/min/mg	< 100 µL/min/mg	100 to 200 nM
COc1cccc(CCN2Cc3nccc(N4CCOCC4)c3C2=O)n1 [compound 483, 6-[2-(6-Methoxy-2-pyridyl)ethyl]-4-morpholino-7H-pyrrolo[3,4-b]pyridin-5-one]	< 100 µL/min/mg	< 100 µL/min/mg	< 100 nM
[2H]C1([2H])OC([2H])([2H])C([2H])([2H])N(c2ccnc3c2C(=O)N(CCc2ccc4ccccc4n2)C3)C1([2H])[2H] [compound 485, 4-(2,2,3,3,5,5,6,6-Octadeuteriomorpholin-4-yl)-6-[2-(2-quinolyl)ethyl]-7H-pyrrolo[3,4-b]pyridin-5-one]	100 to 220 µL/min/mg	100 to 220 µL/min/mg	< 100 nM
O=C1c2c(N3CCOCC3)ccnc2CN1CCc1ccc(-c2ccccc2)cn1 [compound 486, 4-Morpholino-6-[2-(5-phenyl-2-pyridyl)ethyl]-7H-pyrrolo[3,4-b]pyridin-5-one]	100 to 220 µL/min/mg	> 220 µL/min/mg	< 100 nM
O=C1c2c(-c3ccncc3)ccnc2CN1CCc1ccc(-c2ccccc2)cn1 [compound 488, 6-[2-(5-Phenyl-2-pyridyl)ethyl]-4-(4-pyridyl)-7H-pyrrolo[3,4-b]pyridin-5-one trifluoroacetate]	100 to 220 µL/min/mg	> 220 µL/min/mg	200 to 500 nM
Cc1cnc(CCN2Cc3nccc(N4CCOCC4)c3C2=O)c(C)c1 [compound 489, 6-[2-(3,5-Dimethyl-2-pyridyl)ethyl]-4-morpholino-7H-pyrrolo[3,4-b]pyridin-5-one]	100 to 220 µL/min/mg	100 to 220 µL/min/mg	< 100 nM
O=C1c2c(N3CCOCC3)ccnc2CN1CCc1ccc2sccc2n1 [compound 491, 4-Morpholino-6-(2-thieno[3,2-b]pyridin-5-ylethyl)-7H-pyrrolo[3,4-b]pyridin-5-one]	100 to 220 µL/min/mg	100 to 220 µL/min/mg	< 100 nM
O=C1c2c(N3CCOCC3)ccnc2CN1CCc1cn2cc(F)ccc2n1 [compound 493, 6-[2-(6-Fluoroimidazo[1,2-a]pyridin-2-yl)ethyl]-4-morpholino-7H-pyrrolo[3,4-b]pyridin-5-one trifluoroacetate]	< 100 µL/min/mg	< 100 µL/min/mg	< 100 nM
O=C1c2c(-c3ccncc3)ccnc2CN1CCc1cn2cc(F)ccc2n1 [compound 494, 6-[2-(6-Fluoroimidazo[1,2-a]pyridin-2-yl)ethyl]-4-(4-pyridyl)-7H-pyrrolo[3,4-b]pyridin-5-one trifluoroacetate]	< 100 µL/min/mg	< 100 µL/min/mg	< 100 nM
O=C1c2c(N3CCOCC3)ccnc2CN1CCc1cnc2ccccc2n1 [compound 495, 4-Morpholino-6-(2-quinoxalin-2-ylethyl)-7H-pyrrolo[3,4-b]pyridin-5-one trifluoroacetate]	< 100 µL/min/mg	< 100 µL/min/mg	< 100 nM
Cc1cccn2cc(CCN3Cc4nccc(-c5ccncc5)c4C3=O)nc12 [compound 496, 6-[2-(8-Methylimidazo[1,2-a]pyridin-2-yl)ethyl]-4-(4-pyridyl)-7H-pyrrolo[3,4-b]pyridin-5-one trifluoroacetate]	< 100 µL/min/mg	< 100 µL/min/mg	< 100 nM
CCc1ccc(CCN2Cc3nccc(-c4ccncc4)c3C2=O)nc1 [compound 501, 6-[2-(5-Ethyl-2-pyridyl)ethyl]-4-(4-pyridyl)-7H-pyrrolo[3,4-b]pyridin-5-one trifluoroacetate]	< 100 µL/min/mg	100 to 220 µL/min/mg	100 to 200 nM
COc1cccc(CCN2Cc3nccc(-c4cccnc4)c3C2=O)n1 [compound 503, 6-[2-(6-Methoxy-2-pyridyl)ethyl]-4-(3-pyridyl)-7H-pyrrolo[3,4-b]pyridin-5-one trifluoroacetate]	100 to 220 µL/min/mg	100 to 220 µL/min/mg	100 to 200 nM
O=C1c2c(N3CCOCC3)ccnc2CN1CCc1ccc(Cl)cn1 [compound 505, 6-[2-(5-Chloro-2-pyridyl)ethyl]-4-morpholino-7H-pyrrolo[3,4-b]pyridin-5-one]	< 100 µL/min/mg	< 100 µL/min/mg	200 to 500 nM
Cc1cnc(CCN2Cc3nccc(-c4ccncc4)c3C2=O)cc1C [compound 507, 6-[2-(4,5-Dimethyl-2-pyridyl)ethyl]-4-(4-pyridyl)-7H-pyrrolo[3,4-b]pyridin-5-one trifluoroacetate]	100 to 220 µL/min/mg	> 220 µL/min/mg	200 to 500 nM
[2H]c1nc2c(c(N3C([2H])([2H])C([2H])([2H])OC([2H])([2H])C3([2H])[2H])c1[2H])C(=O)N(C([2H])([2H])Cc1nc3c([2H])c([2H])c([2H])c([2H])c3c([2H])c1[2H])C2([2H])[2H] [compound 510, 2,3,7,7-Tetradeuterio-6-[1,1-dideuterio-2-(3,4,5,6,7,8-hexadeuterio-2-quinolyl)ethyl]-4-(2,2,3,3,5,5,6,6-octadeuteriomorpholin-4-yl)pyrrolo[3,4-b]pyridin-5-one]	100 to 220 µL/min/mg	> 220 µL/min/mg	< 100 nM
O=C1c2c(-c3ccncc3)ccnc2CN1CCc1ccc2ncccc2n1 [compound 512, 6-[2-(1,5-Naphthyridin-2-yl)ethyl]-4-(4-pyridyl)-7H-pyrrolo[3,4-b]pyridin-5-one]	< 100 µL/min/mg	< 100 µL/min/mg	< 100 nM
[2H]c1nc2c(c(N3CCOCC3)c1[2H])C(=O)N(CC([2H])([2H])c1nc3c([2H])c([2H])c([2H])c([2H])c3c([2H])c1[2H])C2([2H])[2H] [compound 513, 2,3,7,7-Tetradeuterio-6-[2,2-dideuterio-2-(3,4,5,6,7,8-hexadeuterio-2-quinolyl)ethyl]-4-morpholino-pyrrolo[3,4-b]pyridin-5-one]	100 to 220 µL/min/mg	> 220 µL/min/mg	< 100 nM
O=C1c2c(N3CCOCC3)ccnc2CN1CCc1ccc2ncccc2n1 [compound 514, 4-Morpholino-6-[2-(1,5-naphthyridin-2-yl)ethyl]-7H-pyrrolo[3,4-b]pyridin-5-one]	< 100 µL/min/mg	< 100 µL/min/mg	< 100 nM
